According to ChEMBL document CHEMBL3046930, “Germination and growth inhibitors from wheat (Triticum aestivum L.) husks” (2002):
Active and inactive are the calls of the source.

Experiments:
Type in all cases: functional
Triticum aestivum [1] = assay: Growth inhibition of intact Triticum aestivum (wheat) seed assessed as appearance of distinct rootlets at 500 ppm after 4 days relative to wheat grains RL4137 germination
Triticum aestivum [2] = assay: Inhibition of intact Triticum aestivum (wheat) seed germination assessed as appearance of distinct rootlets at 500 ppm after 4 days relative to wheat grains RL4137 germination
Triticum aestivum [3] = assay: Growth inhibition of intact Triticum aestivum (wheat) seed assessed as appearance of sprouts at 500 ppm after 4 days relative to wheat grains RL4137 germination
Triticum aestivum [4] = assay: Inhibition of intact Triticum aestivum (wheat) seed germination assessed as appearance of sprouts at 500 ppm after 4 days relative to wheat grains RL4137 germination

CC1(C)CCC[C@@]2(C)OC(=O)C=C12
active: growth inhibition (GI) (Triticum aestivum [1]) | inhibition (Triticum aestivum [2]) | growth inhibition (GI) (Triticum aestivum [3]) | inhibition (Triticum aestivum [4])

CC1(C)CCCC2(C)OC(=O)C=C12 (racemic)
active: growth inhibition (GI) (Triticum aestivum [1]) | inhibition (Triticum aestivum [2]) | growth inhibition (GI) (Triticum aestivum [3]) | inhibition (Triticum aestivum [4])

C[C@H](O)c1ccccc1
active: growth inhibition (GI) (Triticum aestivum [1]) | inhibition (Triticum aestivum [2]) | growth inhibition (GI) (Triticum aestivum [3]) | inhibition (Triticum aestivum [4])

CC(O)c1ccccc1 (racemic)
active: growth inhibition (GI) (Triticum aestivum [1]) | inhibition (Triticum aestivum [2]) | growth inhibition (GI) (Triticum aestivum [3]) | inhibition (Triticum aestivum [4])

CC1(C)CCC[C@]2(C)OC(=O)C=C12
active: growth inhibition (GI) (Triticum aestivum [1]) | inhibition (Triticum aestivum [2]) | growth inhibition (GI) (Triticum aestivum [3]) | inhibition (Triticum aestivum [4])

C[C@@H](O)c1ccccc1
active: growth inhibition (GI) (Triticum aestivum [1]) | inhibition (Triticum aestivum [2]) | growth inhibition (GI) (Triticum aestivum [3]) | inhibition (Triticum aestivum [4])
